One assay relates to mice. Put plainly: standard hot plate test (analgesia). Conditions: Mus musculus; in mice, intravenous injection in the tail vein; read-out: Analgesia ED=50. It counts as in vivo. Here is the method: Analgesia. The novel compounds were tested in the standard hot plate test.
Represenatative results are presented in Table I. The compounds were dissolved in a detergent (Emulphor): ethanol: saline (5:5:90) and administered by intravenous injection in the tail vein with an injection volume of 0.1 ml/10g of body weight.

Assay [1] relates to emesia caused by an antieoplastic drug (cisplatin). As to the kind of experiment: antiemetic activity against cisplatin-caused emesis. Format: in vivo. To be noted: Columbidae, sc, in pigeons, administered subcutaneously, read-out: Reduction of vomiting(50%). Here is the method: The compounds also tested in pigeons against emesia caused by an antieoplastic drug (cisplatin) according to the method described in Feigenbaum et al., Eur. J. Pharmacol. 169, 159-165 (1989). Representative results are presented in Table I. The compounds were dissolved as described above for the tests on analgesia, and administered subcutaneously. The injection volume was 1.0 ml/kg body weight.

In assay [2] the test system is Arachidonic Acid-Induced Paw Edema. Put plainly: arachidonic acid-induced paw edema. Format: in vivo. Conditions: Mus musculus, po, compared to vehicle treated controls (peanut oil orally), N=5 mice/group, read-out: percent inhibition of paw edema; for inhibition at 0.05 mg/kg: dose 0.050 mg/kg; for inhibition at 0.1 mg/kg: dose 0.100 mg/kg; for inhibition at 0.25 mg/kg: dose 0.250 mg/kg. How it is done:
The compounds were tested by a method reported by W. Calhoun et al., Agents and Actions, 21, 306-a309 (1987). Water was substituted for mercury as the displacement medium. PAF (1.0 µg) or arachidonic acid (1.0mg) dissolved in 50 µl of 5% ethanol in saline was injected s.c. into the plantar surface of the right hind paw of female mice (20-25g). The mice were under ether anesthesia during this procedure. The volume of the right foot was measured to the level of the lateral malleous by water displacement before treatment and 15 min after PAF injection or 30 min after arachidonic injection. The change in paw volume was calculated for each mouse.

The test system of another assay is mouse vas deferens. Put plainly: electrically-evoked twitch response of the mouse vas deferens. Here is the method:
R.G. Pertwee, L.A. Stevenson, D.B. Elrick, R. Mechoulam, A.D. Corbett, Brit. J. Pharmacol. 105, 980 (1992). […] The structure of anandamide was established by mass spectrometry (MS) and nuclear magnetic resonance (NMR) spectroscopy. Additional data were obtained from the GC-MS and CID measurements of the trimethylsilyl (TMS) derivative of the material.
Fig. 2. Inhibition of vas deferens twitch response by natural anandamide. Vasa deferentia obtained from MFI mice were mounted in 4 ml siliconized organ baths under an initial tension of 0.5 g. The baths contained Mg++ -Free Krebs solution which was kept at 37 C and bubbled with 95% 02 and 5% CO2 . Tissues were stimulated supramaximally with 0.5 s trains of 3 pulses (train frequency 0.1 Hz: pulse duration 0.5 ms). Isometric contractions were recorded. Natural anandamide was dispersed in Tween 80 and saline (see ref. 12) and added in volumes of 40 µl.

A further assay concerns the target T1, cannabinoid receptor (Rattus norvegicus, UniProt P20272).
T1 construct: Synaptosomal membranes were prepared from rat whole brain-minus brainstem; from tissue; host or cells: rat whole brain minus brainstem, synaptosomal membranes (Sprague-Dawley males)
Put plainly: centrifugation radioligand binding assay with [3H]HU-243 on synaptosomal membranes.

The subject of assay [3] is intraocular pressure (I.O.P.). Put plainly: antiglaucoma activity in stable glaucoma induced by chymotrypsin injection into the eye. It counts as in vivo. Conditions: 0.01% aq. solution, rabbits. How it is done:
The compounds were also tested for antiglaucoma activity in rabbits with stable glaucoma induced by δ-chymotrypsin injection into the eye as described in detail in R. Mechoulam et al., On the therapeutic possiblities of some cannabinoids in "The Therapeutic Potential of Marihuana" (eds S. Cohen. R.C. Stillman) Plenum Press, New York, 1975. pp. 35-48). The compounds were compared in activity to that of pilocarpine (a standard antiglaucoma drug) which at 0.01% aq. solution reduces the intraocular pressure (I.O.P.) and delays recovery to half time of the original I.O.P. about 30 hours. […] The compounds were dissolved as described for analgesia and further diluted with saline to obtain the required concentration.

Structures are written as SMILES.

T1 sequence (P20272 whole entry): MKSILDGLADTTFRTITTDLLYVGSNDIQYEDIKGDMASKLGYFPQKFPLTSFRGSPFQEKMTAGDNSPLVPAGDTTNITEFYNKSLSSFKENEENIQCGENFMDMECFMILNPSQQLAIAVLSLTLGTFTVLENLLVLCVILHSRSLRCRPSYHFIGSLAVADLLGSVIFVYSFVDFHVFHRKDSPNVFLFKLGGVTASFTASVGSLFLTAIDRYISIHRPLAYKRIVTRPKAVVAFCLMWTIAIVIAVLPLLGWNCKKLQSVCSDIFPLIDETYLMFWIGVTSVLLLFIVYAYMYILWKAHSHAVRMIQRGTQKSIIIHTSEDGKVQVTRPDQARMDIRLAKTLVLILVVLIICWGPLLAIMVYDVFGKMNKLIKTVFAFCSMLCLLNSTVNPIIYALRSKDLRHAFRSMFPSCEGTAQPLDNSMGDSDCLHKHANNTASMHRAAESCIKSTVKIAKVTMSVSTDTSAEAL
Experimental for cannabinoid receptor: To screen for endogenous cannabinoid compounds there were tested brain-derived fractions using a centrifugation radioligand binding assay. […] Particular attention was paid to the binding of [^3H]HU-243 to the siliconized polypropylene microfuge tubes in which the assay was conducted. Normally, about 15-20% of the added [^3H]HU-243 adheres to the microfuge tube, with the amount increasing slightly when unlabelled cannabinoid drugs displace the radioligand from the receptor.
Synaptosomal membranes were prepared from rat whole brain-minus brainstem (Sprague-Dawley males, 430-470g). [^3H]HU-243 (45-55 pM) was incubated with synaptosomal membranes (protein content 3-4 µg) for 90 min at 30°C with either the indicated concentrations of anandamide or the vehicle alone (fatty acid-free bovine serum albumin, final concentration-0.5 mg/ml). Bound and free radioligand were separated by centrifugation (see ref. 8 for full details of the assay). The data were normalized to 100% of specific binding, which was determined with 50 nM unlabeled HU-243. The amount of specific binding was 77-82% of the total radioactivity bound to the membranes. Data points (□, ▲) represent the average of triplicate determinations from two independent experiments.

For the compound `CC/C=C\C/C=C\C/C=C\C/C=C\C/C=C\C/C=C\CCC(=O)NCCO` [4,7,10,13,16,19-docosahexaenylethanolamide], the ED50 in the assay with mice amounted to 6.1 mg/kg. In addition, the ED50 in assay [1] stood at 4.8 mg/kg. In assay [2], the inhibition at 0.05 mg/kg was 52.4%, the inhibition at 0.1 mg/kg was 66.8% and the inhibition at 0.25 mg/kg turned out to be 72%.

`CCCCC/C=C\C/C=C\C/C=C\C/C=C\CCCC(=O)NCCO` [Arachidonylethanolamide, 5,8,11,14-icosatetraenamide, (N,-2-hydroxyethyl)-(all-Z)]: the “inhibition of the twitch response” value in the assay with mouse vas deferens (electrically-evoked, mouse vas deferens) was “concentration-dependent inhibition”. Further, the “reversal of the inhibition of the twitch response by naloxone” value with mouse vas deferens (naloxone 300 nM) is on record as “not reversed”. In addition, in the assay on mice, the ED50 is 4.2 mg/kg. The ED50 in assay [1] was 2.5 mg/kg. Besides, in assay [2] (dose 0.010 mg/kg), the inhibition at 0.01 mg/kg came out at 56.2%. Moreover, the inhibition at 0.025 mg/kg in assay [2] (dose 0.025 mg/kg) was 58.4%. Also, in assay [2], the inhibition at 0.05 mg/kg stood at 74.2%, the inhibition at 0.1 mg/kg is 98% and the inhibition at 0.25 mg/kg came to 100%.

As for `CCCCC/C=C\C/C=C\C/C=C\C/C=C\CCCC(=O)NCC(C)(C)O` [arachidonoyl-β-dimethylethanolamide], affinity on cannabinoid receptor (synthetic compounds, prepared and tested) was put at a Ki of 162 ± 34.1 nM.

Take `CCCCC/C=C\C/C=C\C/C=C\C/C=C\CCCCCC(=O)NCCO` [cis-7,10,13,16-docosatetraenoylethanolamide]: the Ki on cannabinoid receptor (compounds isolated from the brain and synthesized) was determined as 34.4 ± 3.2 nM.

`CC[C@@H]1C(=O)OC[C@@H]1Cc1cncn1C` [pilocarpine]: the “delays recovery to half time of the original I.O.P.” value in assay [3] is given as “about 30 hours”.

(Values after patent EP0670826B1, “FATTY ACID DERIVATIVES AND PHARMACEUTICAL COMPOSITIONS CONTAINING THEM” (YISSUM RESEARCH DEVELOPMENT COMPANY OF THE HEBREW …, priority 1992, dated 1994).)
